Laboratory results from patent US20230338316A1, “ABBAPOLINS AS INHIBITORS AND DEGRADERS OF POLO-LIKE KINASES” (UNIVERSITY OF SOUTH CAROLINA, priority 2022, published 2023).

Experiments:
[1] = test system: SH-SY5Y neuroblastoma cells overexpressing PLK1; experiment: Cell viability assay in neuroblastoma cells; assay type: cell-based
Method: Abbapolin compounds activity was evaluated in neuroblastoma cells. […] Further, abbapolins induced PLK1 degradation in SH-SY5Y cells (FIG. 14-16).

PLK1 PBD (367-603) = target: T1, PLK1 PBD (367-603) (Homo sapiens, UniProt P53350); experiment: Fluorescence polarization assay, PLK1 PBD; assay type: binding; conditions: Table 10; target not named at the place; read-out: in vitro binding IC50
T1 construct: PLK1 PBD (367-603) and PLK3 PBD (335-646) proteins were obtained from BPS Biosciences Inc; purchased BPS Biosciences Inc. (San Diego, CA)
Method: Materials were dissolved in DMSO (10 mM) and diluted from 10 nM to 600 μM (maximum of 6% DMSO tolerance in the assay). PLK1 PBD (367-603) and PLK3 PBD (335-646) proteins were obtained from BPS Biosciences Inc. (San Diego, CA); 17 ng PLK1 and 156 ng PLK3 were used per reaction. The fluorescein-tracer phospho-peptides (MAGPMQS[pT]PLNGAKK (SEQ ID NO: 1) for PLK1, and GPLATS[pT]PKNG (SEQ ID NO: 2) for PLK3) were used at a final concentration of 10 nM. Incubation was carried out at room temperature for 45 minutes. Fluorescence was measured using a DTX 880 plate reader and Multimode Analysis software (Beckman Coulter, Brea, CA). The polarization values in millipolarization (mP) units were measured at an excitation wavelength of 488 nm and an emission wavelength of 535 nm. Each data point was performed in triplicate for every experiment, and experiments were performed at least three times. An IC50 value for each compound was calculated from linear regression analysis of the plots.

[2] = Pharmacokinetics after oral gavage; assay type: in vivo, swiss webster mice
Method: FIG. 3 graphically illustrates pharmacokinetics of SCCP ID No. 6359 in swiss webster mice at a dosage of 50 mg/kg.
These reasonable PK values of the lead abbapolin compounds tested in vivo are promising and indicate optimization will lead to further improvements.

HL-60(TB) = experiment: Single dose cell viability assay, HL-60(TB); assay type: cell-based; conditions: HL-60(TB) (Leukemia), single dose 10 μM
Method: Lead abbapolin compounds were tested in multiple cancer cell lines, including non-small cell lung cancer (NSCLC) cells, melanoma cells, colon cancer cells, central nervous system (CNS) cancer cells, prostate cancer cells, renal cancer cells, and breast cancer cells. Each of these cancer cells lines were sensitive to the lead abbapolin compounds in a cell viability assay, including 6184 (Table 3), 6277 (Table 4), 6279 (Table 5), 6355 (Table 6), 6359 (Table 7), 6369 (Table 8), and 6421 (Table 9).

Solubility in PBS = assay type: physicochemical; conditions: expressed as IP dose
PLK1 [3] = target: T2, PLK1 (Homo sapiens, UniProt P53350); experiment: PLK1 degradation in PC3 cells; assay type: cell-based; parameters: endogenous in cells; host or cells: PC3 prostate cancer cells; conditions: PC3 cell line, 24 hours
Method: For example, PC3 cells were treated with varying dosages of abbapolin 6369, and percent of PLK1 degradation was measured at 24 hours (FIGS. 8A-8B). HeLa cells were treated with 25 μM abbapolin 6369, and time points shown in the assay were 24 hours, 48 hours, and 72 hours (FIGS. 9A-9B). PC3 cells were treated with varying dosages of abbapolin 6329, and percent of PLK1 degradation was measured at 24 hours (FIGS. […]). HeLa cells were treated with varying dosages of abbapolin 6329, and time points shown in the assay were 24 hours, 48 hours, and 72 hours (FIGS. 11A-11B).

[4] = test system: HeLa cervical cancer cells; experiment: MTT cell viability assay, HeLa; assay type: cell-based; conditions: p53 MT, PTEN WT
Text: HeLa cervical cancer cells were obtained from ATCC (Manassas, VA). Histone H2B GFP-labeled HeLa cells (HeLa-H2B-GFP) were kindly provided by Dr. Geoffrey Wahl (Gene Expression Laboratory, Salk Institute), and were confirmed as >95% GFP positive by FACS (data not shown) but were not otherwise authenticated. Cells were maintained in DMEM (Invitrogen™, Carlsebad, CA) supplemented with 10% FBS or Corning® Nu-serum™ (BD™ Biosciences, Franklin Lakes, NJ) and 1% penicillin/streptomycin (Invitrogen™) in a humidified incubator and 5% CO2 at 37° C.
Exponentially growing cells were plated in 96-well dishes. Dose response curves were used to treat cells for 72 hours with inhibitors. Following the three-day treatment, cell viability was measured using the MTT (3-(4,5-dimethylthiazol-2-yl)-2,5-diphenyltetrazolium bromide) colorimetric assay. Cells were incubated for 3 hours with MTT allowing viable cells to metabolize the tetrazolium dye to a purple colored solution. Absorbance measurements (595 nm) were quantified using a DTX 880 plate reader and IC50 values were generated for FLIPs.

PLK1 [5] = target: T2, PLK1; experiment: Cellular thermal shift assay (CETSA); assay type: cell-based; parameters: endogenous in cells; host or cells: PC3 prostate cancer cells
Method: Cellular thermal shift assay (CETSA) was performed with PC3 cells cultured in RPMI medium supplemented with 10% FBS. For an initial determination of the melting profile of PLK1 AND PLK3, cells dispensed into 96-well PCR plates in the above medium (6000 cells/well in 50 μL) were subjected to temperature gradient (38-60° C.) for 10 min. […] Centrifugation was performed at 14000 rpm to sediment the denatured protein content. Supernatant was collected and subjected to SDS-PAGE, and immunodetection was performed using anti-PLK1 and anti-PLK3 antibodies. PLK1 and PLK3 bands were quantified on a LI-COR C-Digit Blot Scanner, and Tagg and Tagg values were calculated for both proteins. In subsequent experiments, cells were treated at increasing doses (3.0, 1.0, 0.3, 0.1, 0.03 μM) of inhibitors together with DMSO control, for 2 h. Cells were then subjected to heat shock at Tagg for 10 min, and unstable protein was removed by centrifugation step. Following immuno-blotting, bands of stable PLK1 and PLK3 were quantified, normalized to loading control and plotted using GraphPad Prism software. EC50 values for inhibitors were calculated. […] The EC50 of the peptides were determined from the curve fit of the dose response.

[6] = Tolerability in the PC3 xenograft study; assay type: in vivo, athymic nude mice
Method: The efficacy of promising abbapolin compounds were tested in multiple cancer cell lines. […] To do so, athymic nude mice were injected in their flanks with 2.7×10^6 PC3 prostate cancer cells. After the tumors established at 13 days, 5-8 mice per group were treated with 6359 and 6369 daily for 5 days (M-F) for a total of 15 days. […] This is in agreement with the PLK1 degradation in the xenograft tumor.

[7] = 6359 100 mg/kg oral, 6369 40 mg/kg IP, 15 days

T2 sequence (P53350 whole entry): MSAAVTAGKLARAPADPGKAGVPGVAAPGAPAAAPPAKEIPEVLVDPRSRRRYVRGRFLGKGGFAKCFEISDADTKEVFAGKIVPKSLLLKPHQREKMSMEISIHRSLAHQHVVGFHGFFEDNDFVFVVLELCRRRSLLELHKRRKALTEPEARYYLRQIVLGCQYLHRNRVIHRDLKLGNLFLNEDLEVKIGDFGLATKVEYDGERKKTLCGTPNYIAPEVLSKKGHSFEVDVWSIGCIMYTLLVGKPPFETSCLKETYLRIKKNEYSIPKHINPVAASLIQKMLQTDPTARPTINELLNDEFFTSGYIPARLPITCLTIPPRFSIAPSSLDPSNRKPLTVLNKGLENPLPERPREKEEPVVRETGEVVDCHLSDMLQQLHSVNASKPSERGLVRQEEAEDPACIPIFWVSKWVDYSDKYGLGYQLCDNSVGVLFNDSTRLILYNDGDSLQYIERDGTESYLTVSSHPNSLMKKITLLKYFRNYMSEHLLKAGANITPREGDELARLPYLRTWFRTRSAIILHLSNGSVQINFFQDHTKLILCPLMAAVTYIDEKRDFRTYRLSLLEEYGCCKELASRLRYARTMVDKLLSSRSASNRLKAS
T1 sequence (P53350 367-603): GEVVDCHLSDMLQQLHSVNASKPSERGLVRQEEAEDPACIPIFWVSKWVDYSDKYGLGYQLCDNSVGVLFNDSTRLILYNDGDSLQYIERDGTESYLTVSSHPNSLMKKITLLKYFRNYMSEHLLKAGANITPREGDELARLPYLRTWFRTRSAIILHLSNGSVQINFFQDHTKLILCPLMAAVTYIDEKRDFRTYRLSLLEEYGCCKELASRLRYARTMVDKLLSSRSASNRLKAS

In the case of “3-(4-octylbenzamido)phenyl phosphate [compound 6369]”, the IC50 [1] is reported as 232 ± 55 µM, the IC50 (PLK1 PBD (367-603)) is reported as 115 µM and the blood levels ([2]; 50 mg/kg by oral gavage) is reported as “measurable blood levels”. The “oral absorption / PK” value ([2]; mouse, in vivo, po) was “low oral absorption”, the “Cells Remaining (%)” value (HL-60(TB)) was 54.82% and the “limit of solubility in PBS” value (Solubility in PBS) was 40 mg/kg. The PLK1 degradation (PLK1 [3]) was “degradation of PLK1”, the IC50 [4] was 17.5 ± 2.9 µM and the EC50 (PLK1 [5]) was 0.15 µM. The body weight [6, 7] was “no loss of body weight”, the tolerability / toxicity [6, 7] was “well tolerated” and the “change in liver, kidney, and prostate weight” value ([6]; P>0.05) was “non-significant”.
